Test results: article PMC9312958, “A Novel and Selective Dopamine Transporter Inhibitor, (S)-MK-26, Promotes Hippocampal Synaptic Plasticity and Restores Effort-Related Motivational Dysfunctions” (Biomolecules, 2022)

What was measured:
hNET = target: T1, hNET (Homo sapiens, UniProt P23975); assay: hNET radioligand binding assay (CHO cells, [3H]nisoxetine)
T1 construct: expressed in transfected cells
Protocol: (§1) Binding affinity to the hDAT, hNET and hSERT expressed in CHO cells was evaluated in in vitro radioligand binding assays. Binding assays were conducted according to the standard and validated protocols under conditions defined by the contractor (Eurofins Cerep SA, Celle-’Evescault, France; study number 100054410). Antagonist radioligand assays were conducted for the human norepinephrine, the human dopamine, and the serotonin transporters (using CHO cells), using [^3H]nisoxetine (1 nM), [^3H]BTCP (4 nM), and [^3H]imipramine (2 nM) as ligands and desipramine (1 µM), BTCP (10 µM), and imipramine (10 µM) as non-specific agents, respectively (with scintillation counting as detection method).

[1] = system: adult male Sprague Dawley rats; assay: FR5/chow feeding choice task; assay type: in vivo, rat
Protocol: Pharmacological agents: (S)-MK-26 was obtained from the Lubec Laboratory (University of Vienna, Austria) and dissolved in dimethyl sulfoxide (DMSO) (10%), Tween 80 (15%), and 0.9% saline (75%). The DMSO/Tween 80/saline mixture was administered as the vehicle control. The dose range was selected as 3.75–45.0 mg/kg based on its DAT affinity and pilot studies. It was administered 30 min before testing. TBZ (9,10-dimethoxy3-(2-methylpropyl)-1,3,4,6,7, 11b hexahydrobenzo[a]quinolizin2-one) was obtained from Tocris Bioscience (Ellisville, MO) and was dissolved in DMSO (20%) and 0.9% saline (80%) and was titrated with 1.0 N HCl until the drug was dissolved at a pH of 4.0–4.5. The DMSO/saline solution with equal amounts of HCl was administered as the vehicle control. The selected dose was 1.0mg/kg based on the previous research from our laboratory. It was administered 120 min prior to testing.
FR5/chow feeding choice task: A total of 8 adult male Sprague Dawley rats (Envigo Sprague Dawley, Indianapolis, IN, USA; weights 275–299 g upon arrival) were pair-housed in a colony maintained at 23 °C, with a 12 h light/dark cycle (lights on 07:00). Rats were food deprived to 85% of their free-feeding body weight with modest growth throughout the experiment and water was available ad libitum in their home cages. All the animal protocols were approved by the University of Connecticut Institutional Animal Care and Use Committee, and the experiments were completed according to National Institutes of Health guidelines.
Behavioral sessions were conducted in operant chambers (28 × 23 × 23 cm^3; Med Associates, Fairfax, VT, USA) with 30 min sessions 5 days/week. Rats were initially trained to lever press on magazine training for 3 days, followed by an FR1 schedule for 3 days (high-carbohydrate 45-mg pellets, Bio-Serv, Frenchtown, NJ, USA), and then moved to the FR5 schedule. After 5 weeks of training on the FR5 schedule, lab chow was introduced as the concurrently available choice food (Laboratory Diet, 5P00 Prolab RMH 3000, Purina Mills, St. Louis, MO, USA; typically 15–20 g). At the end of each session, rats were immediately removed from the chambers. The number of lever pressing was recorded and the amount of consumed chow was calculated by weighing the remaining food, including spillage. Rats were trained on the FR5/chow feeding choice task for 5 weeks, after which drug testing began.
To test the effects of (S)-MK-26 on FR5/Chow feeding choice task, trained rats were administered either with TBZ (1.0 mg/kg) or vehicle 120 min before testing, and (S)-MK-26 also with doses of 15.0, 30.0, 45.0 mg/kg or vehicle 30 min before testing, via intraperitoneal (IP) injections on drug testing days. A repeated-measures design was utilized where each rat received each drug treatment in a randomly varied order, once per week. The following five treatment combinations were given: TBZ vehicle + (S)-MK-26 vehicle; 1.0 mg/kg TBZ + (S)-MK-26 vehicle; 1.0 mg/kg TBZ + 15.0 mg/kg (S)-MK-26; 1.0 mg/kg TBZ + 30.0 mg/kg (S)-MK-26; 1.0 mg/kg TBZ + 45.0 mg/kg (S)-MK-26. Next, to see if the effects of lower doses, the following four treatment combinations were given in a repeated measure design: TBZ vehicle + (S)-MK-26 vehicle; 1.0 mg/kg TBZ + (S)-MK-26 vehicle; 1.0 mg/kg TBZ + 3.75 mg/kg (S)-MK-26; 1.0 mg/kg TBZ + 7.5 mg/kg (S)-MK-26.

hSERT [2] = target: T2, hSERT (Homo sapiens, UniProt P31645); assay: Uptake inhibition assay in HEK293 cells expressing hSERT; assay type: cell-based
T2 construct: expressed in transfected cells
T2 sequence (P31645 whole entry): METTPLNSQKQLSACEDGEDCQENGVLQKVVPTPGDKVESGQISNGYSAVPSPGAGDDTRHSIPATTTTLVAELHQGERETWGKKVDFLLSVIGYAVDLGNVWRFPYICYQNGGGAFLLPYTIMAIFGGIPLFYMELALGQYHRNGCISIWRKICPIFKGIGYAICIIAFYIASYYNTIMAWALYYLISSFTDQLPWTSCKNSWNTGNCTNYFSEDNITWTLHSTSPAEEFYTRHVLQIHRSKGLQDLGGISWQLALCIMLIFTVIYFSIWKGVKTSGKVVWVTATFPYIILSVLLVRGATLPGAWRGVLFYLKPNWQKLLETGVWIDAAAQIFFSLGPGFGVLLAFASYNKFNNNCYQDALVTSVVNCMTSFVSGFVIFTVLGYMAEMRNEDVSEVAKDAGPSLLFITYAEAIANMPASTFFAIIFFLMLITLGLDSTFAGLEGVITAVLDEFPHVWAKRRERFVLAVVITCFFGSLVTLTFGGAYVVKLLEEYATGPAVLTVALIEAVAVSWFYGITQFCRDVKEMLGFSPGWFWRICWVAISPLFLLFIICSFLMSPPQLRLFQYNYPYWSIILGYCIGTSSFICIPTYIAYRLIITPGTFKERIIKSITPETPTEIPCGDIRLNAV
Protocol: Human embryonic kidney 293 cells (HEK293 cells) were cultivated in Dulbecco’s Modified Eagle Medium (DMEM), containing 10% heat-inactivated fetal calf serum (FCS; 100 mL/L), streptomycin (100 μg/100 mL) and penicillin ([…]). Geneticin (50 μg/mL) was added to select cells stably expressing the human isoforms of dopamine, norepinephrine and serotonin transporter (hDAT, hNET, and hSERT, respectively) as described earlier. Cell lines were maintained in culture in humidified atmosphere (37 °C, 5% CO2), and passaged when reached 80–90% confluency. Cells expressing the desired transporter were seeded the day before the experiment (40,000 cells per well) or two days before the experiments (20,000 cells per well) onto poly-D-lysine (PDL)-coated 96-well plates.
Uptake inhibition experiments were carried out as reported previously. […] Thereafter, 200 μL of Ultima Gold^TM XR scintillation cocktail (PerkinElmer, MA, USA) was added, the plates were shaken and the radioactivity accumulated into the cells determined in a Wal-lac 1450 MicroBeta TriLux Liquid Scintillation Counter & Lumi (GMI, Ramsey, MN, USA). Non- specific tritiated substrate uptake was measured in the presence of 100 μM cocaine (for hDAT and hNET) or 10 μM paroxetine (for hSERT), and subtracted from the data. […]

hSERT [3] = target: T2, hSERT; assay: hSERT radioligand binding assay (CHO cells, [3H]imipramine)
Protocol: as §1

[4] = 15.0, 30.0 and 45.0 mg/kg i.p. coadministered with 1.0 mg/kg TBZ

T1 sequence (P23975 whole entry): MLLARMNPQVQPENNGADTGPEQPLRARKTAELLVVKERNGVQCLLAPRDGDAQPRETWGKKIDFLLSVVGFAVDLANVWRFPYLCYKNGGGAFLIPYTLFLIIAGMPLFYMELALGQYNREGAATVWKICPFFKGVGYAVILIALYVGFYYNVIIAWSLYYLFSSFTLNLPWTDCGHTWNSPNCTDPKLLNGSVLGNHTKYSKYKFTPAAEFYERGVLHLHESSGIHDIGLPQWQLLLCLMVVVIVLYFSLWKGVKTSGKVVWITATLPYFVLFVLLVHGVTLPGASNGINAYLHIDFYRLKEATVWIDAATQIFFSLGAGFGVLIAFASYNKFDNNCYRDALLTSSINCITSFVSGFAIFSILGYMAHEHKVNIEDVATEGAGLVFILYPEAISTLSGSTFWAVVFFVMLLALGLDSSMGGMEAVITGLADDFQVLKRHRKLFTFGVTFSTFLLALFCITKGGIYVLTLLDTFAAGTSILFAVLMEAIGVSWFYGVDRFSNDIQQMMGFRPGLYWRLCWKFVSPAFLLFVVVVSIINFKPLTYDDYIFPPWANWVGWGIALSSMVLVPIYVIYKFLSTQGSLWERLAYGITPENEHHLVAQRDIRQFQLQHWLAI

[O-][S@@+](Cc1cncs1)C(c1cccc(Cl)c1)c1cccc(Cl)c1 [(S)-MK-26, (S)-5-(((B(3-chlorophenyl)methyl)sulphinyl)methyl)thiazole]
binding to NET (hNET): trifling bindings
effect on TBZ-induced change in chow intake [1, 4]: significantly attenuated the effects of TBZ
effect on TBZ-induced change in lever pressing [1, 4]: significantly attenuated the effects of TBZ
potency in effort-based choice tests compared to other modafinil analogs ([1]; comparison with earlier studies): lower potency than (S,S)-CE-158
reversal of TBZ effects on lever pressing and chow intake ([1]; low-dose progression 3.75 and 7.5 mg/kg i.p. with 1.0 mg/kg TBZ): failed to reverse the effects of TBZ
IC50 (hSERT [2]): > 1000 µM
binding to SERT (hSERT [3]): trifling bindings
